Assay results reported in US20050064011A1, “Implantable or insertable medical devices containing phenolic compound for inhibition of restenosis” (priority 2003, published 2005).

System: coronary arteries of juvenile domestic swine
Assay: Stent implantation in porcine coronary artery model, morphometric analysis after 28 days
Format: in vivo
Settings: BHT in copolymer stent coating
From the text: The following are placed in the coronary arteries of juvenile domestic swine: (a) oversized bare metal stents, (b) EtO-sterilized, copolymer-coated, BHT-free stents, (c) electron-beam-sterilized, copolymer-coated, BHT-free stents, (d) electron-beam-sterilized, stents with coating containing 5% BHT and 95% copolymer, and (e) electron beam-sterilized, stents with coating containing 10% BHT and 90% copolymer. After 28 days, the stents are harvested from the animals and an examination of morphometric % restenosis and neointimal thickening area was conducted. Morphometric analysis is performed on one specimen from each stented segment in a blinded manner. Morphometry is completed using a PC based digital planimetry system. Morphometric % restenosis is determined by neointimal area÷internal elastic lamina (IEL) area×100; while neointimal area is determined by internal elastic lamina (IEL)−injured luminal area. The results are presented in the table to follow: Statistical methods are as follows: Data are presented as mean±S.D. Comparisons between the control (bare stent) and treated stents were made using unpaired t-test. Improvement in morphometic % restenosis and neointimal area, relative to bare stents, was […] considered to be statistically significant for values of p≦0.05.

Cc1cc(C(C)(C)C)c(O)c(C(C)(C)C)c1 [BHT, butylated hydroxytoluene]
stent biocompatibility: enhances stent biocompatibility
